In patent US9193756B2, “Adrenomedullin production enhancer” (National University Corporation ASAHIKAWA MEDICAL COLLEGE, priority 2008, dated 2015):

Experiments:
distal colon blood flow [1] = assay: Blood flow-increasing effects of components in crude drugs (1): hydroxysanshool, ginsenosides; type: in vivo, rat; details: for Rate of increase in VC: into the colon, mg/kg: H-sanshool 0.3, ginseng 30, ginsenoside Rb1 1, ginsenoside Rg1 1, mean
Method: Male SD rats (8 to 10 weeks of age, body weight 240 to 360 g) were used (n=2 to 6). Hydroxy-β-sanshool, ginsenoside Rb1, or ginsenoside Rg1 was added to a 1% aqueous solution of Tween 80 to obtain concentrations of 0.06 mg/mL, 0.2 mg/mL, and 0.2 mg/mL, respectively, and the resulting solutions were used as the respective test specimens for administration of individual crude drug components. Furthermore, test specimens for the administration of hydroxysanshool with a ginseng extract, ginsenoside Rb1, or ginsenoside Rg1 in combination were prepared by adding, to a 1% aqueous solution of Tween 80, hydroxysanshool at a concentration of 0.06 mg/mL, and a powdered ginseng extract, ginsenoside Rb1, or ginsenoside Rg1 at a concentration of 6 mg/mL, 0.2 mg/mL, or 0.2 mg/mL, respectively. After preliminarily placing an 18 G Surflo indwelling needle inserted through the caecum, 5 mL/kg portions of test specimens which had been kept warm at 37° C. were administered into the colon 0.5 to 1 hour later, by which time baseline blood flow had stabilized. A control group was administered a 1% aqueous solution of Tween 80.
A polyethylene tube with an inner diameter of 0.8 mm was inserted through the left common carotid artery of an anesthetized rat, and the tip was left indwelling in the left ventricle. A tracheal cannula was placed indwelling in the trachea and connected to a respirator (SN-480-7); artificial respiration was then performed at a frequency of 60 RPM. Body temperature was maintained at 37±0.5° C. by a temperature controller (NS-TC10). […] The results of measurement are expressed as the mean value±standard error (S.E.M.). Comparison of effects was performed by one-way analysis of variance (ANOVA), followed by the Scheffe multiple comparison test. A risk rate of 5% or less was employed as the significance level.

distal colon blood flow [2] = assay: Blood flow-increasing effects of components in crude drugs (2): 6-shogaol; type: in vivo, rat; details: for Rate of increase in VC: into the colon, mg/kg: 6-shogaol 2, ginsenoside Rb1 1
Method: Male SD rats (8 to 10 weeks of age) were used. 6-Shogaol was added to a 1% aqueous solution of Tween 80 to obtain a concentration of 0.4 mg/mL, and the resulting solution was used as a test specimen. Furthermore, ginsenoside Rb1 and 6-shogaol were added to a 1% aqueous solution of Tween 80 at concentrations of 0.2 mg/mL and 0.4 mg/mL, respectively, to prepare test specimens. After preliminarily placing an 18 G Surflo indwelling needle inserted through the caecum, 5 mL/kg portions of test specimens which had been kept warm at 37° C. were administered into the colon 0.5 to 1 hour later, by which time baseline blood flow had stabilized. A control group was administered 1% aqueous solution of Tween 80.
A polyethylene tube with an inner diameter of 0.8 mm was inserted through the left common carotid artery of an anesthetized rat, and the tip was left indwelling in the left ventricle. A tracheal cannula was placed indwelling in the trachea and connected to a respirator (SN-480-7); artificial respiration was then performed at a frequency of 60 RPM. Body temperature was maintained at 37±0.5° C. by a temperature controller (NS-TC10).

SMILES | Rate of increase in VC (distal colon blood flow [1]; 15 min) [%] | Rate of increase in VC (distal colon blood flow [1]; 30 min) [%] | Rate of increase in VC (distal colon blood flow [1]; 45 min) [%] | Rate of increase in VC (distal colon blood flow [1]; 60 min) [%] | Rate of increase in VC (distal colon blood flow [1]; 75 min) [%] | Rate of increase in VC (distal colon blood flow [1]; 90 min) [%] | Rate of increase in VC (distal colon blood flow [2]; 15 min) [%] | Rate of increase in VC (distal colon blood flow [2]; 30 min) [%] | Rate of increase in VC (distal colon blood flow [2]; 45 min) [%] | Rate of increase in VC (distal colon blood flow [2]; 60 min) [%] | Rate of increase in VC (distal colon blood flow [2]; 75 min) [%] | Rate of increase in VC (distal colon blood flow [2]; 90 min) [%] | Blood flow increase (in words) (distal colon blood flow [2]; Example 5, administration into the colon) | Time of peak increase in blood flow (distal colon blood flow [2]; after administration into the colon) [min] | Blood flow / VC increase (in words) (distal colon blood flow [1]; Example 4, administration into the colon)
CC(C)=CCC[C@](C)(O[C@@H]1O[C@H](CO)[C@@H](O)[C@H](O)[C@H]1O)[C@H]1CC[C@]2(C)[C@@H]1[C@H](O)C[C@@H]1[C@@]3(C)CC[C@H](O)C(C)(C)[C@@H]3[C@@H](O[C@@H]3O[C@H](CO)[C@@H](O)[C@H](O)[C@H]3O)C[C@]12C [Ginsenoside Rg1, ginsenoside Rg1] | −10.83 | 5.84 | 16.29 | 10.92 | 12.25 | 18.11 |  |  |  |  |  |  |  |  | 
CCCCC/C=C/C(=O)CCc1ccc(O)c(OC)c1 [6-Shogaol, 6-shogaol] |  |  |  |  |  |  | 58.32 | 61.20 | 53.07 | 42.55 | 46.68 | 32.92 | induced an increase in blood flow | 30 | 
CC(C)=CCC[C@](C)(O[C@@H]1O[C@H](CO[C@@H]2O[C@H](CO)[C@@H](O)[C@H](O)[C@H]2O)[C@@H](O)[C@H](O)[C@H]1O)[C@H]1CC[C@]2(C)[C@@H]1[C@H](O)C[C@@H]1[C@@]3(C)CC[C@H](O[C@@H]4O[C@H](CO)[C@@H](O)[C@H](O)[C@H]4O[C@@H]4O[C@H](CO)[C@@H](O)[C@H](O)[C@H]4O)C(C)(C)[C@@H]3CC[C@]12C [Ginsenoside Rb1, ginsenoside Rb1] | 11.72 | 18.87 | 60.21 | 26.20 | 40.81 | 19.98 |  |  |  |  |  |  |  |  | 
C/C=C/C=C/C=C/CC/C=C/C(=O)NCC(C)(C)O [H-sanshool, Hydroxy-β-sanshool] | 3.89 | 5.79 | 2.09 | 9.46 | 8.58 | 4.19 |  |  |  |  |  |  |  |  | did not increase blood flow
